Reference: US7125958B1, “Malaria polypeptides” (priority 1997, dated 2006)

Legend:
Assay type in all cases: cell-based, Plasmodium falciparum
TM 284 rosetting = tested on: TM 284 rosetting
[1] = tested on: FCR3S1.2 infected pRBC rosettes; details: competitive rosette-reformation, enzyme 60–90 min
TM180 rosettes = assay: Heparinase treatment, rosettes of strain TM180; details: not shown
R29 rosettes = assay: Heparinase treatment, rosettes of strain R29; details: not shown
FCR3S1 rosetting = details: compared to mock treated control cultures
[2] = tested on: uninfected RBC rosette binding capacity; details: compared to non-treated RBC

With Heparinase III the “change in rosetting after treatment of whole cultures, TM 284” value (TM 284 rosetting; compared to mock treated control cultures) was “somewhat lower decrease”, the “effect of heparinase treatment on rosettes, TM284” value (TM 284 rosetting; not shown) was “disrupted the rosettes” and the “effect of enzyme treatment of the uninfected erythrocyte on rosette binding” value [1] was “treatment blocked the binding”. For the same substance, the “effect of heparinase treatment on rosettes, TM180” value (TM180 rosettes) was “disrupted the rosettes”, the “effect of heparinase treatment on rosettes, R29” value (R29 rosettes) was “not affected” and the “change in rosetting after treatment of whole cultures, FCR3S1” value (FCR3S1 rosetting) was “drastic reduction of the rosetting capacity”. For the same substance, the “decrease of rosette binding capacity of treated uninfected RBC” value [2] was 4–5 fold.
